The values that follow come from US20240408216A1, “PROTEIN INHIBITOR OR DEGRADING AGENT, PHARMACEUTICAL COMPOSITION CONTAINING SAME AND PHARMACEUTICAL USE” (JING MEDICINE TECHNOLOGY (SHANGHAI) LTD., priority 2021, published 2024).

The test system of one assay is BaF3 (EGFR WT). Briefly: Cell proliferation IC50 assay (Cell Titer GLO), BaF3 WT cells. To be noted: Mus musculus, Ba/F3 EGFR, Table 6, 10 ng/ml EGF, 72 h. The assay is classed as cell-based. As for the experimental part:
(§1) IC50 of compounds in the present invention was determined by Cell Titer GLO reagent from Promega. The procedures are as follows:
(§2) Tumor cells were cultured in specified medium in an incubator at 37° C. and 5% CO2. The cells were passaged periodically. Cells at the logarithmic growth phase were collected for plating at a density of 2000-4000 cells/well. The next day, the compounds of the present invention were serially diluted and added to the cells, with DMSO being the negative control and the culture media without cells being the blank control. The plate was incubated in the incubator for 72 h. The cell viability assay was performed by adding the detection reagents to the cell culture media according to Cell Titer GLO reagent instructions and detecting luminescent signals on an EnVision microplate reader (PerkinElmer).
(§3) Inhibition of cell growth by the compounds of the present invention was plotted by Prism Graphpad software for statistically calculating the IC50 of the compound of the present invention.

A further assay concerns A431. In words: Cell proliferation IC50 assay (Cell Titer GLO), A431 cells. Format: cell-based. The following applies: Homo sapiens, A-431; Table 6; A431, 72 h; read-out: A431 IC50. The protocol:
as §1, §2, §3

For assay [1], the system named is BaF3 (EGFR L858R/T790M/C797S). In words: Cell proliferation IC50 assay (Cell Titer GLO), BaF3 LTC cells. Format: cell-based. To be noted: Mus musculus, Ba/F3 EGFR, Table 6, 72 h. The protocol:
as §1, §2, §3

For the next assay, the target named is T1, BaF3 (EGFR Del19/C797S) (Homo sapiens, UniProt P00533, C797S, cells depend on it, form not given).
T1 construct: BaF3 (EGFR Del19/C797S)|DC|RPMI1640 + 10% FBS
Briefly: Cell proliferation IC50 assay (Cell Titer GLO), BaF3 DC cells. The following applies: Table 6, 72 h. Format: cell-based, mouse. The protocol:
as §1, §2, §3

T1 sequence (P00533 with tags, fused parts or gaps DEL746-750/C797S, form open): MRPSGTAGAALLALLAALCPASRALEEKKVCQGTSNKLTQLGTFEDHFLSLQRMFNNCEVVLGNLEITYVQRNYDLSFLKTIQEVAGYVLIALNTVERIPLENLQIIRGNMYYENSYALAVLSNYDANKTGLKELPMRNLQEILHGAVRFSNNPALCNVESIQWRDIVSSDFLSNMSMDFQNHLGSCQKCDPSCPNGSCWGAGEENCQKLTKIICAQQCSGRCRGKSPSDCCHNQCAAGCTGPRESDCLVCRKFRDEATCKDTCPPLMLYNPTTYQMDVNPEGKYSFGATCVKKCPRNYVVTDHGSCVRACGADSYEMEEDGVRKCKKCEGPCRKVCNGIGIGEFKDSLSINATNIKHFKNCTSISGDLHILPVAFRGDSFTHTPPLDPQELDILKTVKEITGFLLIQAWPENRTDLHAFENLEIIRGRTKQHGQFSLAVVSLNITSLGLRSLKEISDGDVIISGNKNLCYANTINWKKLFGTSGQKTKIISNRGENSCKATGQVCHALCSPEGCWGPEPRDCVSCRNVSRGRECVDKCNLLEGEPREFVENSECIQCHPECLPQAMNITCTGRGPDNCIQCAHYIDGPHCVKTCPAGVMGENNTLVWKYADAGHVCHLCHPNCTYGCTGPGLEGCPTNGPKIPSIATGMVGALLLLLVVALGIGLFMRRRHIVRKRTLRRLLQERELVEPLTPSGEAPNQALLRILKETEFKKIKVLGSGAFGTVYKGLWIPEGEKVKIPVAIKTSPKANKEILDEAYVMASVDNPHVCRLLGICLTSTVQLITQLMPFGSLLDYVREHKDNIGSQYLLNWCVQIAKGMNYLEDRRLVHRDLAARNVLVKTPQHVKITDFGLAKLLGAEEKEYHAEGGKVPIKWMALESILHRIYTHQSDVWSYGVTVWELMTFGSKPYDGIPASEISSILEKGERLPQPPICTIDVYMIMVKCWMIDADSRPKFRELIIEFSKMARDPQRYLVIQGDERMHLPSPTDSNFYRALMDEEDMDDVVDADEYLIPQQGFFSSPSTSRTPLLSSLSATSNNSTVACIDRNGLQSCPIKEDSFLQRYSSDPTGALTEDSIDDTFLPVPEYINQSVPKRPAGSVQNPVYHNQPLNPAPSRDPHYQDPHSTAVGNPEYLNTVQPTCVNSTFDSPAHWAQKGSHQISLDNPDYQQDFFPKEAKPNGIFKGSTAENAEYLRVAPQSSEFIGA

With `CCc1cc(Nc2ncc(-c3cnn(C)c3)c(Nc3ccccc3P(C)(C)=O)n2)c(OC)cc1N1CCC(N2CCN([C@H]3C[C@H](Oc4cccc5c4CN(C4CCC(=O)NC4=O)C5=O)C3)CC2)CC1` (stereo partly drawn) [Example E70], the half-inhibitory concentration (IC50) with BaF3 (EGFR WT) was 267 nM; with A431, 1250 nM; in assay [1] it was above 4000 nM; on BaF3 (EGFR Del19/C797S), 0.7 nM.
On the same counts, the results for `CCc1cc(Nc2ncc(-c3nc(C)no3)c(Nc3ccccc3P(C)(C)=O)n2)c(OC)cc1N1CCC(N2CCN(CCOc3cccc4c3CN(C3CCC(=O)NC3=O)C4=O)CC2)CC1` (stereo not drawn) [Example E149] are 1290 nM, above 4000 nM, 3480 nM and 37.2 nM.
In the same order, the values of `CCc1cc(Nc2ncc(C(=O)N3CCCC3)c(Nc3ccccc3P(C)(C)=O)n2)c(OC)cc1N1CCC(N2CCN(CCOc3cccc4c3CN(C3CCC(=O)NC3=O)C4=O)CC2)CC1` (stereo not drawn) [Example E148] are above 4000 nM, above 4000 nM, above 4000 nM and 9.3 nM.
On the same counts, the results for `CCc1cc(Nc2ncc(-n3cc(C)cn3)c(Nc3ccccc3P(C)(C)=O)n2)c(OC)cc1N1CCC(N2CCN(CCOc3ccc4c(c3)CN(C3CCC(=O)NC3=O)C4=O)CC2)CC1` (stereo not drawn) [Example E68] are above 4000 nM, above 4000 nM, above 4000 nM and 18.6 nM.
With `CCc1cc(Nc2ncc(-c3cn(C)nn3)c(Nc3ccccc3P(C)(C)=O)n2)c(OC)cc1N1CCC(N2CCN(CCOc3ccc4c(c3)CN(C3CCC(=O)NC3=O)C4=O)CC2)CC1` (stereo not drawn) [Example E193], the IC50 was 1320 nM in the assay with BaF3 (EGFR WT), above 4000 nM in the assay with A431, above 4000 nM in assay [1] and 14.9 nM at BaF3 (EGFR Del19/C797S).
Consider `COc1cc2c(cc1Nc1ncc(Cl)c(Nc3ccccc3P(C)(C)=O)n1)CCN(C1CCN(C(=O)COc3cccc4c3CN(C3CCC(=O)NC3=O)C4=O)CC1)C2` (stereo not drawn) [Example E100], for which the concentration for half-maximal inhibition (IC50) was 1230 nM in the assay on BaF3 (EGFR WT), above 4000 nM in the assay with A431, 1130 nM in assay [1] and 515 nM on BaF3 (EGFR Del19/C797S).
As for `CCc1cc(Nc2ncc(Cl)c(Nc3ccccc3P(C)(C)=O)n2)c(OC)cc1N1CCC2(CCN(C(=O)CCCOc3cccc4c3CN(C3CCC(=O)NC3=O)C4=O)CC2)CC1` (stereo not drawn) [Example E90], the IC50 in the assay on BaF3 (EGFR WT) is 2070 nM; with A431 it was at least 3700 nM; in assay [1] it was 143 nM; on BaF3 (EGFR Del19/C797S), 13.1 nM.
On the same counts, the results for `CCc1cc(Nc2nc(Nc3ccccc3P(C)(C)=O)c3cn[nH]c3n2)c(OC)cc1N1CCC(N2CCN(CCOc3cc4c(cc3F)C(=O)N(C3CCC(=O)NC3=O)C4)CC2)CC1` (stereo not drawn) [Example E208] are 1010 nM, 1350 nM, 532 nM and 16.1 nM.
In the same order, the values of `CCc1cc(Nc2ncc(-n3cncn3)c(Nc3ccccc3P(C)(C)=O)n2)c(OC)cc1N1CCC(N2CCN(CCOc3cccc4c3CN(C3CCC(=O)NC3=O)C4=O)CC2)CC1` (stereo not drawn) [Example E171] are above 4000 nM, above 4000 nM, above 4000 nM and 6.3 nM.
In the same order, the values of `CCc1cc(Nc2ncc(Cl)c(Nc3ccccc3P(C)(C)=O)n2)c(OC)cc1N1CCC(N2CCC3(CC(Oc4ccc5c(c4)CN(C4CCC(=O)NC4=O)C5=O)C3)C2)CC1` (stereo not drawn) [Example E187] are 815 nM, 1460 nM, 50.3 nM and 19.5 nM.
For the molecule `CCc1cc(Nc2ncc(Cl)c(Nc3ccccc3P(C)(C)=O)n2)cc(C#N)c1N1CCC(N2CCN(CCC#Cc3cccc4c3CN(C3CCC(=O)NC3=O)C4=O)CC2)CC1` (stereo not drawn) [Example E94], the IC50 turned out to be 50.6 nM in the assay on BaF3 (EGFR WT), 524 nM in the assay with A431, 57 nM in assay [1] and 40.2 nM against BaF3 (EGFR Del19/C797S).
On the same counts, the results for `CCCc1cc(Nc2ncc(Cl)c(Nc3ccccc3P(C)(C)=O)n2)c(OC)cc1N1CCC(N2CCN(CCC#Cc3cccc4c3CN(C3CCC(=O)NC3=O)C4=O)CC2)CC1` (stereo not drawn) [Example E44] are above 4000 nM, 3490 nM, 17.9 nM and 6.6 nM.
